We go through five compounds from patent US8822542B2, “Isoketal scavengers and mitigation of disorders involving oxidative injury” (Vanderbilt University, priority 2005, dated 2014).

For data set [1], the system named is F2-IsoPs esterified in the kidney. Kind of data set: Galactosamine treated rats (hepatorenal syndrome model), F2-IsoPs esterified in the kidney. The data set is classed as in vivo, rat. The conditions noted are these: 1 g/L drinking water. The source says: Another antioxidant of the present invention is lipoic acid. […] Dihydrolipoic acid is a dithiol. As mentioned previously, thiols reduce the endoperoxide intermediates in the IsoP pathway in vivo to F2-IsoPs. Reducing the endoperoxides concomitantly therefore reduces the formation of endoperoxide rearrangement products, one of which is the IsoKs (FIG. 28). Therefore, mechanistically lipoic acid is an antioxidant to test in animal models of AD. It is also an antioxidant to test because it is available over the counter for human use.

Data set [2] deals with aged SAMP mice. The conditions noted are these: mouse, in vivo; cited from earlier work.
The subject of data set [3] is plasma concentrations of F2-IsoPs. Kind of data set: Porcine model of global ischemia/reperfusion (cardiac arrest and CPR), plasma F2-IsoPs. The data set is classed as in vivo. The conditions noted are these: 30 mg/kg intravenous, single dose during CPR. On the procedure:
The present inventors chose antioxidants to test in the models of AD that we have found effective in suppressing oxidative stress in other animal models of oxidative injury. One model of oxidative injury is the porcine model of global ischemia/reperfusion resulting from induction of cardiac arrest for 3 mins followed by cardiopulmonary resuscitation (CPR). Shown in FIG. 25 are results using this model. As shown, cardiac arrest followed by CPR induced a dramatic increase in plasma concentrations of F2-IsoPs. […] This study involved the administration of a single dose of Tempol. Shown in FIG. 26 is data taken from a report from Ortiz, et. al. in which they assessed the ability of chronic oral administration of TEMPOL (1 mM in the drinking water) to suppress the increase in F2-IsoPs induced by chronic IV infusion of angiotensin II. […] Tempol is one of the antioxidants of the present invention.

Data set [4] deals with F2-IsoPs in renal vein plasma. Conditions: 1 mM in the drinking water, chronic oral; cited from earlier work.
The target of data set [5] is human cardiac Na channel (hH1, or SCN5A) (Homo sapiens, UniProt Q14524). Kind of data set: Whole-cell Na current recording, wild-type hH1 expressed in HEK-293 cells. The conditions noted are these: for P500/P1 (use-dependence): 5 Hz, 500 pulses; for V1/2 voltage-dependence of inactivation (availability): HEK-293, t-BHP 1 mM, Iso-K 10 μM.
Chain of human cardiac Na channel (hH1, or SCN5A) (Q14524 whole entry): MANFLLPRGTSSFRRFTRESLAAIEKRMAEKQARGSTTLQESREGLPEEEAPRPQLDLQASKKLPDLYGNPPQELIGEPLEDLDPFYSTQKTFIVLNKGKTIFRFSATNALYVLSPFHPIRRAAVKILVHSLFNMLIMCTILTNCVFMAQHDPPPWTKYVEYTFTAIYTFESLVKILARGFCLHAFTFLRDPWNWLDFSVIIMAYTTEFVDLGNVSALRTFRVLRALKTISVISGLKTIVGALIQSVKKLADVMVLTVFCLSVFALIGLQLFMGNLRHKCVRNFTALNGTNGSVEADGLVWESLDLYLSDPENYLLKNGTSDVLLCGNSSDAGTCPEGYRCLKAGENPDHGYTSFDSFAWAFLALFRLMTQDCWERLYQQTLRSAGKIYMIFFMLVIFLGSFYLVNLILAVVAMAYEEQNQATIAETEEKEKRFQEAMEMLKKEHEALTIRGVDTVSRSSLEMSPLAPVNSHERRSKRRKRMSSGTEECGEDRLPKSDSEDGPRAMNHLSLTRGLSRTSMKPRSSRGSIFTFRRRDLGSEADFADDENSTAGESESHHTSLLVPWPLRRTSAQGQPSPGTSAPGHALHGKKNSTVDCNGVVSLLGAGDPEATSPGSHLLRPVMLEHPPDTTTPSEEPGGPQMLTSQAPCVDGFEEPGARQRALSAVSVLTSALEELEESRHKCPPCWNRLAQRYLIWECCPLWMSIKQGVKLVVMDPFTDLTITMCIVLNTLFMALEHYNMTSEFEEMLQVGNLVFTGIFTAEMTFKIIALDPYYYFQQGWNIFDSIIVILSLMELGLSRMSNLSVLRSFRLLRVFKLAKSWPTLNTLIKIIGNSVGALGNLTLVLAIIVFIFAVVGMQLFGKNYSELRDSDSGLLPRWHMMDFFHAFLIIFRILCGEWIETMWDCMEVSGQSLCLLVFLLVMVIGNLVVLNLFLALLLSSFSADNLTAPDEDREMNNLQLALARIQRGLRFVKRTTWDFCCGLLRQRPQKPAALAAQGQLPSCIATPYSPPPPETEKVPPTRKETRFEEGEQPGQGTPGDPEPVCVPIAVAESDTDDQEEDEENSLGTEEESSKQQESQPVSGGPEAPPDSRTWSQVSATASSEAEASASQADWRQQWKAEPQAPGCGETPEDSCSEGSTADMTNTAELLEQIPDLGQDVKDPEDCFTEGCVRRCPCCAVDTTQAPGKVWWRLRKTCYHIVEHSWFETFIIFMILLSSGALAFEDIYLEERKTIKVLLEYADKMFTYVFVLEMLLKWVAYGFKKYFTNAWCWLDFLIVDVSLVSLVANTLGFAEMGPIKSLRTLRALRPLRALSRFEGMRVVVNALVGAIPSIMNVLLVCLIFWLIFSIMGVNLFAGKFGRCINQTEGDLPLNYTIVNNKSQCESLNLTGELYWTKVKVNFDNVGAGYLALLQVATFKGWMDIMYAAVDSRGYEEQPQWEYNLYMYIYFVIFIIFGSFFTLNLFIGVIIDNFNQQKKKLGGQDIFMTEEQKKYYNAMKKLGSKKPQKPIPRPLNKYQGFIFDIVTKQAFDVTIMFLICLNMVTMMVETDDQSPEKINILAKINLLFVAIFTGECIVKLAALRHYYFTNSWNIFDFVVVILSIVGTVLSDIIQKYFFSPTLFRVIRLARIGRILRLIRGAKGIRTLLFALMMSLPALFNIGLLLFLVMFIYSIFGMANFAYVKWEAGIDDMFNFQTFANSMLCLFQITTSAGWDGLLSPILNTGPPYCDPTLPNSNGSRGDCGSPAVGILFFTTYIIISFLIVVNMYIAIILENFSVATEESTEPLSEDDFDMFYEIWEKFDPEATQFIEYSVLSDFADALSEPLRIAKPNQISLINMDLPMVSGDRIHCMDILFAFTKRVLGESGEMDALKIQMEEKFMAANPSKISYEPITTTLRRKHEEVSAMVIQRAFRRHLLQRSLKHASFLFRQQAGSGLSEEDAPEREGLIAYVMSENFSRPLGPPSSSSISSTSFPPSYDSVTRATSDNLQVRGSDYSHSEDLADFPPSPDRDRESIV
Data set [6] has as its system patients convalescing from myocardial infarction. The conditions noted are these: in vivo; cited from earlier work.
The target of data set [7] is mutant Na+ channel (F1760A) (Homo sapiens, UniProt Q14524, F1760A). The data set is described as follows: Whole-cell Na current recording, F1760A mutant Na+ channel. The data set is classed as cell-based. Conditions: flecainide 10 μM, IsoK 10 μM.
Description: A. Use-dependent flecainide block was examined using the protocol shown. A train of 500 depolarizing pulses with 10 msec duration at −20 mV were applied at a frequency of 5 Hz. Currents are plotted from every twentieth pulse. Upper panel represents the current in the presence of flecainide (1 μM). Lower panel represents INa in the presence of flecainide and IsoK (10 μM). B. Depolarization-dependent effects are summarized as a function of the pulse number. All current amplitudes are normalized to that of the first depolarization and every tenth pulse is plotted. […] For these experiments flecainide concentration was increased to 10 μM.
Where indicated, cells were co-transfected with an equimolar ratio of Na channel human β1 subunit. cDNAs were transiently transfected into HEK-293 cells using lipofectamine (GIBCO-BRL, Gaithersburg, Md.), and were cultured in MEM medium supplemented with 10% fetal bovine serum and 1% pen-strep in a 5% CO2 incubator at 37° C. for 1 to 4 days.
The effects of IsoK were tested using the same protocol as FIG. 39A. In this experiment, the concentration of flecainide was increased to 10 μM to exaggerate use-dependence.
The target of data set [8] is native Na+ channels in HL-1 cells (Mus musculus, UniProt Q9JJV9). Conditions: for Na channel availability: HL-1, preincubation; for V1/2 availability of native Na+ channels: HL-1, t-BHP 2 mM, Iso-K 10 μM.
Chain of native Na+ channels in HL-1 cells (Q9JJV9 whole entry): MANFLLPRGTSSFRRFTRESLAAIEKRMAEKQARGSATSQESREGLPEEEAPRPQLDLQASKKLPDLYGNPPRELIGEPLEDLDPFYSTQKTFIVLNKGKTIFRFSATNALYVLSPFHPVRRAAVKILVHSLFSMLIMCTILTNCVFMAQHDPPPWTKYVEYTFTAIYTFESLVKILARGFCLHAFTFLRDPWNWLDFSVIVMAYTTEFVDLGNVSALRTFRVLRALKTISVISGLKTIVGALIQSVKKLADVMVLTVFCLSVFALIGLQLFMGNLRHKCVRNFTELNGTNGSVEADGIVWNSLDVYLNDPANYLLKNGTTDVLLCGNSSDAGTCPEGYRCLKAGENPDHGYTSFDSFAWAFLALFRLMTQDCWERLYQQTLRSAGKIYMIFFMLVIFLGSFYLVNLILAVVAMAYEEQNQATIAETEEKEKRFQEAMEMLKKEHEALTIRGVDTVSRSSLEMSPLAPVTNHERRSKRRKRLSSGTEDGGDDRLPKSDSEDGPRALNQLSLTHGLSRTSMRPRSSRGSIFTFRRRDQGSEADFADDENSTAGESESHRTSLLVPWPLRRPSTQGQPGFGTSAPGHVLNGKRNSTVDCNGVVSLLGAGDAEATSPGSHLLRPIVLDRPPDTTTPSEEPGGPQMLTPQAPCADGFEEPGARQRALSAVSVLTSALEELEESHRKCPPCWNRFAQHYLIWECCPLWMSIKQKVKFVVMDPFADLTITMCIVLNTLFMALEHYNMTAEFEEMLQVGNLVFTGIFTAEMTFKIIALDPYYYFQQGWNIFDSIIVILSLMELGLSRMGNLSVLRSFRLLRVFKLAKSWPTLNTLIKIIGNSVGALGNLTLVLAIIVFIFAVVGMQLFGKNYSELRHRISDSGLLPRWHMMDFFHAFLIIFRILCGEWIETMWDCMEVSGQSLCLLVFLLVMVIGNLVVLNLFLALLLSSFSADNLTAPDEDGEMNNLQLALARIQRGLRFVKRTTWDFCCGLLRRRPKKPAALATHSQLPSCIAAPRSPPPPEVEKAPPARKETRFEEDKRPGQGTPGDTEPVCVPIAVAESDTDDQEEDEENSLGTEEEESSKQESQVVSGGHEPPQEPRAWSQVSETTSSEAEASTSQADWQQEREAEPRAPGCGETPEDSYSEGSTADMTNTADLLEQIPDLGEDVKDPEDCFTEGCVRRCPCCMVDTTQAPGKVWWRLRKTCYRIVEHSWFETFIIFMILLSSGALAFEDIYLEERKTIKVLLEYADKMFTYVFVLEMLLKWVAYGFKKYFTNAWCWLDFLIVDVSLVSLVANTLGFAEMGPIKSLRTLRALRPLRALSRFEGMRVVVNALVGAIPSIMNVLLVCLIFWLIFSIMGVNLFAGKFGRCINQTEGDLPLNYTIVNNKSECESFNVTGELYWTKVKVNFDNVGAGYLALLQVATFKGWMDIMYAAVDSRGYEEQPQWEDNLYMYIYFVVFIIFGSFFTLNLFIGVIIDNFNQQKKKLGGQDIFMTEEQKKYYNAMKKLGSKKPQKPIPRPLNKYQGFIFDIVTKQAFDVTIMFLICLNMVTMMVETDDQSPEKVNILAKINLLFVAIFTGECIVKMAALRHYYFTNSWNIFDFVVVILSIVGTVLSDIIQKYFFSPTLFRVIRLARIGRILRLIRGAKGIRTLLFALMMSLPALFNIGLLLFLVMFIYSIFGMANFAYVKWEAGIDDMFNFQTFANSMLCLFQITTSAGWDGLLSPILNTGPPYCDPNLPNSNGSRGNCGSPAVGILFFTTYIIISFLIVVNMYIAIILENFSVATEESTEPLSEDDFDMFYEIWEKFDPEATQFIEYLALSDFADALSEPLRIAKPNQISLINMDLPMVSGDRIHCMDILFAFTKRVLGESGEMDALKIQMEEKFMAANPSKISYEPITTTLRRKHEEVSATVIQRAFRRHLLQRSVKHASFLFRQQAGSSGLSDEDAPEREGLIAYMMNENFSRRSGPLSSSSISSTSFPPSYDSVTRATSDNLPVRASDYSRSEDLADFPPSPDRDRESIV
Data set [9] has as its system HEK-293 cells. The data set is described as follows: Lipid peroxidation products in HEK 293 cells treated with t-BHP. The data set is classed as cell-based. The conditions noted are these: exposure of HEK cells. The procedure: Synthesis and analysis of reactive products of lipid peroxidation: E2-isoketal was synthesized as previously described. The present inventors used mass spectrometry to analyze F2-isoprostanes formed following treatment of HEK 293 cells with t-BHP. For this assay, HEK-293 cells (1×10^6) were treated for 30 minutes at room temperature with buffer containing 100 μM t-BHP, or 100 μM t-BHP and 200 μM FeCl2. Total (free and esterified) F2-isoprostanes (F2-IsoPs) esterified in cellular lipids were then quantified by a highly accurate GC/NICI/MS assay as described previously.

The subject of data set [10] is proteasome. Kind of data set: Proteasome inhibition in P19 neuroglial cultures. In kind it is cell-based. From the text: (§1) Because inhibitors of proteasome function induce neuronal death, the present inventors examined the toxicity of IsoKs.
Data set [11] concerns the target bovine serum albumin (Bos taurus, UniProt P02769). Kind of data set: Disappearance of free IsoK and HNE during incubation with bovine serum albumin (rate of adduction). The data set is classed as biochemical. On the procedure: Oxidation of AA in vitro produces both F2-IsoPs and IsoKs in nearly equivalent amounts. However, comparison of the formation of F2-IsoPs and IsoKs in vivo is more complex, because IsoKs rapidly adduct to lysyl residues on proteins. […] In striking contrast, approximately 50% of the HNE still remained in free form after 80 minutes.

The subject of data set [12] is proteasome chymotrypsin-like activity. The data set is described as follows: Inhibition of chymotrypsin-like activity in RAW cell lysates. In kind it is biochemical. From the text: When the mechanism of inhibition id analyzed, both competitive and non-competitive mechanism are found. Therefore, in addition to adducted proteins inhibiting the proteasome, IsoKs may cause inhibition by directly adducting to the proteasome itself, or to proteins that regulate proteasome activity.

The subject of data set [13] is recombinant human tau. The data set is described as follows: PHF-tau formation, dot blot with Alz50. The data set is classed as biochemical. Conditions: equimolar IsoK and tau, within 2 hrs. On the procedure: Synthetic IsoK to equimolar amounts of recombinant human tau was added and the amount of PHF-tau formation by dot blot analysis was determined with the monoclonal antibody Alz50 (a gift from Dr. Peter Davis). Alz50 recognizes an epitope unique to PHF-tau. […] (FIG. 33).

The test system of data set [14] is P19 neuroglial cultures. The data set is described as follows: Cell death in P19 neuroglial cultures. In kind it is cell-based. Conditions: read-out: LC50 cell death.
Description: as §1

In data set [15] the target is ovalbumin (OVA) (Gallus gallus, UniProt P01012). The data set is described as follows: Protein cross-linking after incubation with ovalbumin. In kind it is biochemical. Conditions: 10 molar equivalents, about 4 hours. From the text: The above findings explained why repeated attempts in the past to detect free IsoKs during oxidation of biological systems in vitro, e.g. microsomes, and in animal models of oxidant injury in vivo were unsuccessful because they are rapidly sequestered as protein adducts. Therefore, the present inventors undertook to determine the identity of IsoK lysyl adducts as a basis for development of methodology to detect IsoK and NeuroK adducts in biological tissues in their adducted form. […] Reversible Schiff base adducts were also identified. Schiff base adducts are formed rapidly and then decline over time, whereas lactam adducts accumulate slowly over time. Lysyl protein adducts of IsoKs and NeuroKs are analyzed by LC/MS/MS following enzymatic digestion of proteins to individual amino acids. Enzymatic digestion of proteins is necessary because the adducts degrade during acid hydrolysis. However, this analysis is further complicated by the proclivity of IsoKs and NKs to induce protein crosslinking, which is resistant to hydrolysis. […] This is a dramatic example of the differential effects of IsoKs/NKs and HNE on protein adduction and cross-linking.
Chain of ovalbumin (OVA) (P01012 whole entry, species assumed): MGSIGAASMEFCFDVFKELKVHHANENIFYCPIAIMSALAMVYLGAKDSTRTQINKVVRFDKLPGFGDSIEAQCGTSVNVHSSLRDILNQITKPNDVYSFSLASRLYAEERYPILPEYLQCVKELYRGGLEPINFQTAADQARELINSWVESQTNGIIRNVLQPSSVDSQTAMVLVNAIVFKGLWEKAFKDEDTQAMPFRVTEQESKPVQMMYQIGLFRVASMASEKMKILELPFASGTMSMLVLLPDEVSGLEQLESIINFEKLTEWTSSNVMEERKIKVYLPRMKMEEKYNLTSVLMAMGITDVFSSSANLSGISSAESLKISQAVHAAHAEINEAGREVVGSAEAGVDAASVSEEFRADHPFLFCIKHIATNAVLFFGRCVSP

Setting [16] is: alone, flecainide 1 μM, IsoK 10 μM.

Chain of bovine serum albumin (P02769 25-607): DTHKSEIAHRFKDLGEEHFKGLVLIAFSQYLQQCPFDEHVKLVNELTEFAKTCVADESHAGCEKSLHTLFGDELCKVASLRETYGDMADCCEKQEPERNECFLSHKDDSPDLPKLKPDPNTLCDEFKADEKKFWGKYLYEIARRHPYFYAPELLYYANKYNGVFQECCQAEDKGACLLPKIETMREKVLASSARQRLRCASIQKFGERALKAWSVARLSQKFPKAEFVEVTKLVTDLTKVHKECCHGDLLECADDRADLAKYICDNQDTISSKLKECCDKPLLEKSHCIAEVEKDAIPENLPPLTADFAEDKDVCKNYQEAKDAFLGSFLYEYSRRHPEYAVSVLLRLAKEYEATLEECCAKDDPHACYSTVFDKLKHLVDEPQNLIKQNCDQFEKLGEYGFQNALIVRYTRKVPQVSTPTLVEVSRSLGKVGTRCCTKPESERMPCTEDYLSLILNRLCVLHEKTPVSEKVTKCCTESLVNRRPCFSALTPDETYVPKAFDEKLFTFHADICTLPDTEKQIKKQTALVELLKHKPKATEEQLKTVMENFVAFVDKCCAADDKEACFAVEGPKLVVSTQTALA

Take `O=C(O)CCCC[C@@H]1CCSS1` (racemic) [lipoic acid]: the “increase in F2-IsoPs esterified in the kidney” value in data set [1] is reported as “completely suppressed to below control levels”. The cognitive impairment result in [2] is given as “effective in improving cognitive impairment”.
`CC1(C)CC(O)CC(C)(C)N1[O]` [Tempol]: the “increase in plasma levels of F2-IsoPs” value in [3] was “completely ablated this increase”. In data set [4], the “increase in levels of F2-IsoPs in renal vein plasma” value is listed as “completely prevented the increase”.
In the case of `O=C(NCC1CCCCN1)c1cc(OCC(F)(F)F)ccc1OCC(F)(F)F` (stereo not shown) [flecainide], the “A1 (amplitude of the fast component, recovery from inactivation)” value in data set [5] is 0.80 ± 0.04. In addition, in data set [5], the “A2 (amplitude of the slow component, recovery from inactivation)” value is recorded as 0.20 ± 0.04. The “P500/P1 (use-dependence)” value in [5] (setting [16]) is 0.87±0.04. The “V1/2 voltage-dependence of inactivation (availability)” value in [5] (flecainide 1 μM) is recorded as −86.4±2.1 mV. Also, the “P500/P1 (use-dependent block)” value in data set [5] (WT, flecainide 10 μM, IsoK 10 μM) worked out at 0.38±0.05; in data set [7] it was 0.92±0.03. The “V1/2 voltage-dependence of inactivation” value in [5] (flecainide 1 μM in the presence of IsoK 10 μM) is −99.3±2.3 mV. For the same compound, the mortality increase entry in [6] is given as “three-fold”.
As for `CC(C)(C)OO` [t-BHP, tert-butyl hydroperoxide], in [8], the “Na channel availability” value is “reduced Na channel availability” and the “V1/2 availability of native Na+ channels” value is listed as −82.8±1.7 mV. Moreover, the “formation of lipid peroxidation products” value in data set [9] was “abundant quantities of F2-IsoPs and IsoK”.
For orientation: IC50 means the point on the concentration scale where inhibition reaches its midpoint. The low end stands for greater potency in that assay, the high end for weaker potency in that assay. Take E2-isoketal: in data set [5], the “A1 (amplitude of the fast component, recovery from inactivation)” value is 0.79 ± 0.04; the “A2 (amplitude of the slow component, recovery from inactivation)” value was determined as 0.21 ± 0.04; the INa decay entry is reported as “speeded the rate Of INa decay”; the “V1/2 voltage-dependence of activation” value is recorded as −41.6±1.5 mV. Further, the “P500/P1 (use-dependence)” value in [5] (setting [16]) is recorded as 0.89±0.02. For the same compound, the “P500/P1 (use-dependence)” value in data set [5] (in the presence of flecainide 1 μM) turned out to be 0.66±0.03. In data set [5] (flecainide 1 μM), the “V1/2 voltage-dependence of inactivation (availability)” value is on record as −96.4±1.1 mV. The “activation of sodium channels” value in [5] (over a range of membrane potentials) is given as “no effect on the activation”. In data set [8], the “Na channel availability” value is “reduced Na channel availability” and the “V1/2 availability of native Na+ channels” value is listed as −82.0±1.7 mV. This compound also gave an IC50 in data set [10] of 330 nM. Also, in data set [11], the adduction to albumin entry is “essentially complete within a few minutes”. The compound further gave an IC50 in data set [12] of 2100 nM. The “PHF-tau formation (Alz50)” value in data set [13] is listed as “strong Alz50 immunoreactivity”. The CC50 in data set [14] was found to be 670 nM. Further, the cross-linking of ovalbumin entry in [15] is listed as “extensive cross-linked high molecular weight oligimers”.
